From patent EP4711377A1, “STEROID COMPOUND, PREPARATION METHOD THEREFOR, AND USE THEREOF” (Shujing Biopharma Co., Ltd, priority 2023, dated 2024)
Where two headings read alike, the source gives them in different places.

How the values were obtained:
GABAa receptor (α1β2γ2) = GABAa receptor (α1β2γ2) (Homo sapiens, UniProt P14867+P47870); test: in vitro GABAa receptor (α1β2γ2) cellular activity assay, manual whole-cell patch clamp, enhancement of currents induced by 1 µM GABA; type: cell-based; conditions: for Emax compared to Sage-217: conclusion in words from Table 1-2
Description: The cells used in this experiment were derived from a CHO cell line that stably expressed normal GABAa receptor functions after transfection with human GABAa receptor α1, β2, and γ2 subunit cDNAs. The cell line was constructed by B'sys GmbH. The cells were cultured in a medium (purchased from Invitrogen) containing the following components: DMEM culture medium; 10% (v/v) inactivated fetal bovine serum; 5 µg/mL Puromycin; 250 µg/mL Hygromycin B; and 100 µg/mL Zeocin. The cells were grown in culture dishes containing the above medium and cultured in an incubator at 37 °C with 5% CO2. 12 h to 24 h before the electrophysiological experiment, the cells were transferred onto circular glass slides placed in culture dishes, and were grown under the same medium and culture conditions as above. The density of cells on each circular glass slide was required to meet the requirement that the overwhelming majority of cells were independent and individual.
In this experiment, a manual patch-clamp system HEKA EPC10 USB signal amplifier and digital conversion system (purchased from HEKA Electronics, Germany) were used for whole-cell current recording. The circular glass slides with surface-grown CHO GABAa cells (see the cell culture and requirement section above) were taken out from the culture dishes and then placed into an electrophysiological recording chamber under an inverted microscope. The recording chamber was continuously perfused with extracellular fluid (approximately 1-2 mL/min). In the experiment, the whole-cell current recording technique was employed to record chloride ion currents of GABAa channels. 1 µM GABA was used to activate chloride ion currents of GABAa channels on each cell as an initial control (the reason for using 1 µM GABA concentration was that: this concentration was an effective activation concentration for the GABAa ion channel agonist GABA on the cells used in this experiment, falling between 10% and 20%). Unless otherwise specified, the experiment was performed at conventional room temperature (about 25 °C), and only cells meeting the electrophysiological recording criteria were adopted. In the experiment, the cells were ruptured and sealed, and were clamped at -80 mV after entering a whole-cell state. 1 µM GABA acted on the cells through the drug perfusion system to induce chloride ion currents of GABAa channels; the action time was about 4 s, and the current magnitude was used as the initial control value. Subsequently, the cells were perfused and incubated with the test concentration compound for 3 min, and then a mixed solution of 1 µM GABA and the corresponding test concentration compound was applied to act on the cells to induce currents, so as to observe the enhancing effect of the test compound on the currents induced by 1 µM GABA. When the cell state stabilized, the test compound would be applied from low to high concentrations to act on the same cell. In the experiment, to avoid current reduction caused by desensitization of GABAa ion channels, the interval time for the test substance acting on the cells through the drug perfusion system was at least 180 s.
The experimental data were analyzed using data analysis software provided by HEKA Patchmaster, Microsoft Excel, and Graphpad Prism.

[1] = test system: mice with PTZ-induced convulsions; test: in vivo efficacy experiment in PTZ-induced epilepsy mouse model; design: species or system C57 mice; conditions: for Survival rate: 60 min before PTZ 120 mg/kg s.c., 30 min observation; for Number of clonic seizures / Number of tonic seizures / Clonic seizure latency period / Tonic seizure latency period: Mean ± SEM; for Clonic seizure latency period / Tonic seizure latency period: no seizure in 30 min recorded as 1800 s; for protective effects against acute epileptic seizures: conclusion in words
Description: Male C57 mice, purchased from SPF (Suzhou) Biotechnology Co., Ltd.
PTZ: a 120 mg/kg PTZ solution (administration volume: 10 mL/kg) was prepared with normal saline as the solvent.
Test compounds: solutions of the test compounds at 3/1/0.3 mg/kg (administration volume: 10 mL/kg) were prepared with Vehicle in section 1.4 as the solvent.
One hour before the test, the experimental animals were transferred into an operation room for acclimation.
The mice were randomly grouped, marked, and weighed, with 10 mice in each group. At 60 min before PTZ administration, the test compounds and Vehicle were separately orally administered.
The PTZ solution was administered subcutaneously before experimental observation, and this time point was recorded as the observation starting point.
Immediately after PTZ administration, the animals were placed in observation boxes and observed for 30 min. The following observations of the animals were recorded:
Clonic seizure: the animal has a generalized myoclonus that lasts for more than 3 s and is accompanied by falling.
Tonic seizure: the limbs are straightened at a 90° angle to the torso.
All metrology data were expressed as mean ± standard error of mean (Mean ± SEM), and the Prism 8.0 statistical software was used for data testing and analysis.

[2] = acute toxicity experiment and side effect observation in mice; type: in vivo, ICR mice; conditions: both sexes, ICR, mouse, in vivo; single oral intragastric administration at 2.5, 5, 10, 20 mg/kg; 14 days observation; read-out: maximum tolerated dose (MTD)
Description: (§1) This experiment aimed to evaluate the acute toxic manifestations of the test compounds following single oral intragastric administration in ICR mice, observe the recovery status of the ICR mice within 14 days post-administration, and determine the maximum tolerated dose of the test compounds.
(§2) 65 male and 65 female ICR mice were purchased from Shanghai Jihui Laboratory Animal Care Co., Ltd. After 4-5 days of acclimatization of the experimental animals, the formal experiment was carried out. The mice were housed at 5 mice/cage in a 12/12-hour light/dark cycle at a room temperature of 23±2 °C, with free access to food and water.
(§3) Based on the Vehicle in section 2.4, a certain weight of the test compound was weighed, 5% of the total volume of a DMSO liquid was first added, and the mixture was vortexed. After the drug was completely dissolved, 5% of the total volume of an HS-15 liquid was added, and the mixture was well mixed and vortexed. Finally, a 20% hydroxypropyl-β-cyclodextrin solution was added according to the remaining volume proportion, forming a 2 mg/mL clear and homogeneous solution. The solution was then proportionally diluted in a gradient to concentrations of 1 mg/mL, 0.5 mg/mL, and 0.25 mg/mL (the administration volume was 10 mL/kg).
(§4) • a. About 12-18 h before testing, animals were weighed and then grouped, and fasted overnight (water was accessible). • b. The next day, the mice were reweighed according to groups. Ten mice per group (5 males and 5 females/dose) were subjected to oral intragastric administration of the test compound or Vehicle. The day of administration was designated as Day 1. • c. […] Observation period for Day 2 to Day 14: 9:00 to 12:00.
(§5) • (1) The clinical symptoms and mortality in each group of ICR mice post-administration were recorded to determine the maximum tolerated dose. • (2) The symptom alleviation and recovery status in each group of ICR mice post-administration were recorded.

ICR mice = test: as above; type: in vivo; conditions: for clinical symptoms / death: 4-8 h post-administration; for cage-side observations / main adverse reactions / tolerability: single oral administration, 2.5 to 20 mg/kg
Description: as §1, §2, §3, §4, §5

[3] = positive modulator enhancing GABAa receptor currents induced by 1 µM GABA, CHO cells, read-out: EC50
[4] = all dose groups (2.5/5/10/20 mg/kg)

GABAa receptor (α1β2γ2), sequence (P14867 28-456): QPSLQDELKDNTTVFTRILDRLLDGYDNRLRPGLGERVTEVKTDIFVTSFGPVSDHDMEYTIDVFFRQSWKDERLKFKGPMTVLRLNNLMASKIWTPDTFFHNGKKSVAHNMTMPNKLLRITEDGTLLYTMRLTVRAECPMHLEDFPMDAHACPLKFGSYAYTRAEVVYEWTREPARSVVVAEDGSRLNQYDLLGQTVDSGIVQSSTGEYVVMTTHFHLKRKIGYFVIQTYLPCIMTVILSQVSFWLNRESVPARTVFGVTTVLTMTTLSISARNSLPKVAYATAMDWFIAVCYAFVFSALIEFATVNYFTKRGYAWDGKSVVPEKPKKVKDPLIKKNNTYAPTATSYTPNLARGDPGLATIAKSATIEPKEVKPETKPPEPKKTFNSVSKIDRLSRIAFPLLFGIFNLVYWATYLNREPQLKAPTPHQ
GABAa receptor (α1β2γ2), sequence (P47870 25-512 limits assumed): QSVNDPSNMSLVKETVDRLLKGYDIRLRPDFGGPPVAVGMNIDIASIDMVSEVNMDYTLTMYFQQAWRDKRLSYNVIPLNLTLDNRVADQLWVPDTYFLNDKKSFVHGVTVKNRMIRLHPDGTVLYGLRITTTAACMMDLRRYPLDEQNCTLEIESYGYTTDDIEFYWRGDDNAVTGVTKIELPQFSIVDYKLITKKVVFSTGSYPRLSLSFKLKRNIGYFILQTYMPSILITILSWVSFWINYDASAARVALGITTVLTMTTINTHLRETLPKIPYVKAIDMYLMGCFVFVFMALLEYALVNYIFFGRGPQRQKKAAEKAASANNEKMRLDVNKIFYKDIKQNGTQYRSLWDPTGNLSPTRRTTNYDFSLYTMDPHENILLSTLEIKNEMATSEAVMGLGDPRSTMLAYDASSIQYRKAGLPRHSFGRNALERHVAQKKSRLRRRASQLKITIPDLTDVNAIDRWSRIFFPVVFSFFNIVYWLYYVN
GABAa receptor (α1β2γ2), sequence (P18507 40-475 partner): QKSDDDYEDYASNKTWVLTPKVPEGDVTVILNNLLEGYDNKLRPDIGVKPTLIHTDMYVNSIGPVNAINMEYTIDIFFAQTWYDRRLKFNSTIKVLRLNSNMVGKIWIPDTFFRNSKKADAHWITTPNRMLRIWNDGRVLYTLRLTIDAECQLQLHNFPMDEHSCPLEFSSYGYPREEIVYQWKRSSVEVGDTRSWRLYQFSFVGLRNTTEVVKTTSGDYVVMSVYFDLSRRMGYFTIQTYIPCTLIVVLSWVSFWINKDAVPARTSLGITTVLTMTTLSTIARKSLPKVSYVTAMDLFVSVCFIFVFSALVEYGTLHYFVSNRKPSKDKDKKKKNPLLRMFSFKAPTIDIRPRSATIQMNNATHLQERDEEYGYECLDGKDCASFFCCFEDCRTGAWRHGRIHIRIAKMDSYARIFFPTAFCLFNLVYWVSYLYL

What does the source list for `C[C@@H]1C[C@H](C(=O)Cn2ncnn2)[C@@]2(C)CC[C@H]3[C@@H](CC[C@@H]4C[C@](C)(O)[C@@H](C)C[C@@H]43)[C@H]12` [Example 9, 1-((2S,3S,5R,8R,9R,10S,13S,14S,15R,17S)-3-Hydroxy-2,3,13,15-tetramethylhexadecahydro-1H-cyclopenta[a]phenanthren-17-yl)-2-(2H-tetrazol-2-yl)ethan-1-one]?
Emax compared to Sage-217 (GABAa receptor (α1β2γ2)): lower Emax compared to Sage-217; EC50 (GABAa receptor (α1β2γ2); [3]): 40 nM; Survival rate ([1]; dose 0.3 mg/kg p.o.): 10%; Survival rate ([1]; dose 1 mg/kg p.o.): 100%; Survival rate ([1]; dose 3 mg/kg p.o.): 100%; Number of clonic seizures ([1]; dose 3 mg/kg p.o.): 0.2±0.1; Number of tonic seizures ([1]; dose 3 mg/kg p.o.): 0.0±0.0; Clonic seizure latency period ([1]; dose 3 mg/kg p.o.): 1649.7 ± 105.0 s; Tonic seizure latency period ([1]; dose 3 mg/kg p.o.): 1800.0 ± 0.0 s; protective effects against acute epileptic seizures ([1]; extremely low dose (0.3 mpk)): partial protective effects; protective effects against acute epileptic seizures ([1]; low dose (1 mpk)): significant protective effects; MTD at 14 days [2]: 20 mg/kg; clinical symptoms (ICR mice; 20 mpk group): gait instability; death (ICR mice; [4]): no death occurred; clinical symptoms (ICR mice; all lower dose groups (below 20 mpk)): returned to normal; cage-side observations / main adverse reactions (ICR mice): prostration and mild loss of righting reflex observed in some of the mice at high doses; tolerability (ICR mice): all animals could tolerate it

Which results are given for `C[C@H]1C[C@H]2[C@H](CC[C@@H]3[C@@H]2CC[C@]2(C)[C@@H](C(=O)Cn4ncnn4)CC[C@@H]32)C[C@]1(C)O` [Example 20, 1-((2S,3S,5R,8R,9R,10S,13S,14S,17S)-3-Hydroxy-2,3,13-trimethylhexadecahydro-1H-cyclopenta[a]phenanthren-17-yl)-2-(2H-tetrazol-2-yl)ethan-1-one]?
Emax compared to Sage-217 (GABAa receptor (α1β2γ2)): lower Emax compared to Sage-217; EC50 (GABAa receptor (α1β2γ2); [3]): 110 nM; activation at 0.1 µM (GABAa receptor (α1β2γ2); single concentration 0.1 µM, relative enhancement amplitude of GABAa receptor currents induced by 1 µM GABA, CHO cells, read-out: Agonist ratio): 970%; Survival rate ([1]; dose 0.3 mg/kg p.o.): 10%; Survival rate ([1]; dose 1 mg/kg p.o.): 100%; Number of clonic seizures ([1]; dose 3 mg/kg p.o.): 0.0±0.0; Number of tonic seizures ([1]; dose 3 mg/kg p.o.): 0.0±0.0; Clonic seizure latency period ([1]; dose 3 mg/kg p.o.): 1800.0 ± 0.0 s; Tonic seizure latency period ([1]; dose 3 mg/kg p.o.): 1800.0 ± 0.0 s; protective effects against acute epileptic seizures ([1]; extremely low dose (0.3 mpk)): partial protective effects; protective effects against acute epileptic seizures ([1]; low dose (1 mpk)): significant protective effects; MTD at 14 days [2]: 20 mg/kg; death (ICR mice; [4]): no death occurred; cage-side observations / main adverse reactions (ICR mice): ataxia that aggravated with the increase of dose; tolerability (ICR mice): all animals could tolerate it

With `C[C@@]1(O)CC[C@H]2[C@H](CC[C@@H]3[C@@H]2CC[C@]2(C)[C@@H](C(=O)Cn4cc(C#N)cn4)CC[C@@H]32)C1` [Sage-217, reference compound] as the compound, how does the EC50 (GABAa receptor (α1β2γ2)) read?
Its EC50 is 120 nM.

What about the Survival rate ([1]; dose 0.3 mg/kg p.o.) of the same compound?
The Survival rate was 0%.

What about the Survival rate ([1]; dose 1 mg/kg p.o.) of the same compound?
The Survival rate was 100%.

What about the Survival rate ([1]; dose 3 mg/kg p.o.) of the same compound?
Its Survival rate is 100%.

What about the “Number of clonic seizures” value ([1]; dose 3 mg/kg p.o.) of the same compound?
The value was 0.9±0.3.

What about the “Number of tonic seizures” value ([1]; dose 3 mg/kg p.o.) of the same compound?
Its value is 0.0±0.0.

What about the “Clonic seizure latency period” value ([1]; dose 3 mg/kg p.o.) of the same compound?
The value was 1012.3 ± 181.4 s.

And the “Tonic seizure latency period” value ([1]; dose 3 mg/kg p.o.)?
The value was 1800.0 ± 0.0 s.

What about the “protective effects against acute epileptic seizures” value ([1]; low dose (1 mpk)) of the same compound?
The value was “significant protective effects”.

And the MTD at 14 days [2]?
The MTD at 14 days was 10 mg/kg.

And the mortality (ICR mice; 20 mg/kg group, single oral intragastric administration)?
Its mortality is “mortality was observed in both male and female mice”.

What about the clinical symptoms (ICR mice; 20 mpk group) of the same compound?
Its clinical symptoms is “prostration symptoms”.

And the death (ICR mice; 20 mpk group, 5 males and 5 females)?
The death was 1 male and 2 female mice died.

And the “cage-side observations / main adverse reactions” value (ICR mice)?
Its value is “ataxia that aggravated with the increase of dose, as well as severe loss of righting reflex observed at high doses”.
